Measurements from US20030113330A1, “Methods for treating pulmonary fibrosis” (priority 1999, published 2003).
Converted amounts (≈) assume the structure as drawn. “Also recorded” adds a separate entry of the source. Where a SMILES comes first, the peptide text is derived from it. The star is where a group is joined. Cbz = O=C(OCc1ccccc1)*; CH2F = FC*

Key:
[1] = test system: A549 cells; test: FAS-induced apoptosis (activating anti-FAS antibody CH-11) in A549 cells, ISEL / nuclear fragmentation; type: cell-based, human; details: CH-11 200 ng/ml; lisinopril 500 ng/ml, saralasin 5 mg/ml
[2] = test system: A549 cells; test: as above; type: cell-based, human; details: for inhibition of Fas-induced apoptosis of A549 cells: lisinopril 500 ng/ml
Method: Cell Culture. […] Cells were seeded on 12 mm sterile glass cover slips in 24-well chambers at a density of 20,000 cells per well.
Fluorescence Detection of Apoptosis. […] J. Physiol. […] In these assays detached cells were retained by centrifugation of the 24-well culture vessels during fixation with 70% ethanol. In situ end-labeling of fragmented DNA (ISEL) was conducted as described in Gorczyka et al., Canc. Res. 53:1945-1951 (1993). Briefly, ethanol was removed by rinsing cover slips in distilled water for at least 10 minutes. […] The sections were rinsed thoroughly five times with Buffer A and three additional times in 0.5 M PBS. Incorporated bio-UTP was detected by incubation for one hour at 37° C. with avidin-rhodamine; the cover slips were then rinsed in distilled water three times and mounted under Fluoromount Solution (Southern Biotechnology Associates, Birmingham, Ala.).
Spontaneous or stimulated apoptosis was quantitated as described in Uhal et al., Am. J. Physiol. 269:L819-L828 (1995), in the human lung epithelial cell line A549 by fluorescence detection of chromatin condensation and nuclear fragmentation. The human lung epithelial cell line A549 was cultured on glass cover slips as described in Uhal, et al., Am. J. Physiol. 269:L819-L828 (1995). At the end of the test period, detached cells were retained by centrifuging the culture vessel during fixation of cells in 70% ethanol. Fixed cells were incubated for 30 minutes with 5 ug/ml propidium iodide (PI) in PBS containing DNAse-free RNAse; under these conditions, red fluorescence (>570 nm) is specific for DNA. As in Uhal et al., Am. J. Physiol. 269:L819-L828 (1995), apoptotic cells were identified by the presence of discrete nuclear fragments containing condensed chromatin. Human lung A549 cells were cultured for 20 h in the presence of equivalent concentrations (500 ng/ml) of monoclonal antibody CH-11 (FAS mAb), purified IgM fraction of nonimmune mouse immunoglobulins (IgM), monoclonal antibody 5F-7 (mAb2), and monoclonal antibody 5F-9 (mAb3). Apoptotic cells were scored by the nuclear morphology assay discussed above. A significant difference (p<0.01 compared to control (no additives)), was observed between the means±S.E.M. (at least 4 determinations per condition) of the cells exposed to FAS mAb as compared to the control or other antibody treatments as determined by ANOVA and Dunnett's test. […] J. Physiol.
Ethanol-fixed A549 cells on glass cover slips were subjected to ISEL labeling of fragmented DNA. DNA fragments labeled with biotinylated UTP were detected with rhodamine-conjugated avidin. A549 cells were exposed to either 500 ng/ml anti-FAS antibody (CH-11) under the same conditions as described above or in the presence of 50 ng/ml captopril. […] ISEL-positive A549 cells were quantitated in at least four separate culture vessels exposed to the anti-FAS antibody CH-11 at 500 ng/ml and/or 50 ng/ml captopril.
A549 cells were exposed to anti-FAS antibody CH-11 as described above, in the presence of 0.005 ng/ml (5 pg/ml) to 50 ng/ml captopril. Inhibition of apoptosis was detected as the decrease in ISEL-positive cells, scored as described above. […] Inhibition of apoptosis was maximal (approximately 85-90%) at 50 ng/ml captopril, a concentration known to be physiologically attainable in humans and to be maximally inhibitory for ACE. See Duchin et al., Clin. Pharmacokinet. 14:241-259 (1988).
Cell Culture and Detection of Apoptosis. […] Ibarra-Sunga, C. Gidea, E. Ang, S. Deshmukh, G. Chaudhary, J. Baraboutis, G. Filippatos and B. D. Uhal, Angiotensin II induces apoptosis in human and rat alveolar epithelial cells. Am. J. Physiol. 276:L885-L889 (1999)). […] J. Physiol. […] As in the above Examples, the induction of apoptosis was verified by Annexin V binding and generation of DNA strand breaks […]

[3] = test system: primary rat AEC; test: Angiotensinogen-induced apoptosis in primary rat AEC; type: cell-based; details: ANG 5.0 uM; saralasin 50 ug/ml, lisinopril 500 ng/ml
Method: Cell Culture. […] J. Physiol. Suppl. […] J. Physiol. […] J. Physiol. […] J. Physiol. Suppl.
Detection of Apoptosis. […] J. Physiol. […] Assay of Annexin V binding by flow cytometry was performed essentially as described for human lung fibroblasts in Uhal, et al., Am. J. Physiol. […] Assay of Caspase-3 activity was performed on viable suspension cultures as reported in Uhal, et al., Am. J. Physiol.
For microscopy, cells were cultured on glass cover slips, incubated with test reagents and fixed with 70% ethanol. The fixed cells were immunolabeled overnight at 4° C. with monoclonal antibodies to cytokeratins 7 and 19 (Chemicon International, Temecula, Calif.), and then for one hour at 37° C. with anti-mouse IgG-rhodamine and DNAse-free RNAse (Boehringer Mannheim, Indianapolis, Ind.) The cover slips were then rinsed in distilled water three times and mounted under Fluoromount Solution (Southern Biotechnology Associates, Birmingham, Ala.) containing 5 ug/ml propidium iodide. Photomicroscopy was performed as described in Uhal, et al., Am. J. Physiol.

[4] = test system: primary alveolar epithelial cells (AEC); test: Bleomycin-induced apoptosis of primary AEC in vitro
Method: Lung Cell Isolation and Detection of Apoptosis In Vitro. Primary alveolar epithelial cells (AEC) were isolated from adult male Wistar rats as described above. The primary cells were studied at day two of culture, a time at which they are type II cell-like by accepted morphologic and biochemical criteria, see Paine et al., Am. J. Physiol. […] All cells were seeded in 24-well or 6-well chambers, and all experiments were conducted at subconfluent densities of 80-90% in serum-free Ham's F12 medium. Test reagents were diluted with Ham's F12 medium and were applied for 20 hours at 37° C. in a 5% CO2 incubator.
Detection of apoptotic cells with propidium iodide (PI) was conducted as described above, following digestion of ethanol-fixed cells with DNAse-free RNAse in PBS containing 5 ug/ml PI.
Apoptosis was detected as described above.

## NCCCC[C@H](N[C@@H](CCc1ccccc1)C(=O)O)C(=O)N1CCC[C@H]1C(=O)O [lisinopril]
[1]
  inhibition of FAS-induced apoptosis: 61%
[2]; Homo sapiens, A549 or primary rat AEC, lisinopril 0.5 μg/ml, saralasin 5 μg/ml, read-out: maximal inhibition of apoptosis in response to either Fas activator
  inhibition at 0.5 µg/mL: 82%
[2]
  inhibition of Fas-induced apoptosis of A549 cells: significantly inhibited
[3]
  inhibition of angiotensinogen-induced apoptosis: blocked

## CCc1nc2c(C)cc(C)nc2n1Cc1ccc(-c2ccccc2-c2nn[nH]n2)cc1 [L158809]
[2]
  inhibition of Fas-induced apoptosis of A549 cells: could block

## C[C@H](CS)C(=O)N1CCC[C@H]1C(=O)O [captopril]
[2]; 50 ng/ml captopril with anti-FAS CH-11 500 ng/ml
  effect on FAS-induced apoptotic indexes (morphology, DNA fragmentation, ISEL-positive cells): completely abrogated; also recorded: essentially abolished
[2]; Homo sapiens, A549, 20 h, read-out: IC50 of inhibition of FAS-induced apoptosis (ISEL labeling)
  IC50: 0.07 ng/mL (≈ 0.322 nM)
[2]; Homo sapiens, A549, read-out: maximal inhibition of apoptosis (decrease in ISEL-positive cells)
  inhibition at 0.05 µg/mL: 85 to 90%
[2]; anti-FAS CH-11
  concentration at which inhibition of FAS-induced ISEL labeling was measurable: 5 pg/mL
[2]; captopril alone
  effect on basal ISEL labeling: no significant effect
[4]; Rattus norvegicus, Epithelial cell, read-out: inhibition of bleomycin-induced apoptosis of AEC in vitro
  inhibition at 0.5 µg/mL: 76%

## CNCC(=O)N[C@@H](CCCN=C(N)N)C(=O)N[C@H](C(=O)N[C@@H](Cc1ccc(O)cc1)C(=O)N[C@H](C(=O)N[C@@H](Cc1cnc[nH]1)C(=O)N1CCC[C@H]1C(=O)N[C@@H](C)C(=O)O)C(C)C)C(C)C [saralasin]
[1]
  inhibition of FAS-induced apoptosis: 71%
[2]; cell type not given
  inhibition of AEC apoptosis in response to Fas: 93%
[3]
  inhibition of angiotensinogen-induced apoptosis: completely inhibited

## COC(=O)C[C@H](NC(=O)[C@H](C)NC(=O)[C@@H](NC(=O)OCc1ccccc1)C(C)C)C(=O)CF [ZVAD-fmk, N-benzylcarboxy-Val-Ala-Asp-[O-Me]-CH2F] (Cbz-Val-Ala-Asp(OMe)-CH2F)
[4]; bleomycin 50 uM, captopril 500 ng/ml, ZVAD-fmk 60 uM, aurintricarboxylic acid 10 uM
  inhibition of bleomycin-induced apoptosis of AEC in vitro: 78%

## COc1ccc2c(c1OCc1ccccc1)C[C@@H](C(=O)O)N(C(=O)C(c1ccccc1)c1ccccc1)C2 [PD126055]
[2]
  inhibition of Fas-induced apoptosis of A549 cells: unable to significantly inhibit
